The results in this text go back to PMC4154125, “Crystal structures of highly specific phosphinic tripeptide enantiomers in complex with the angiotensin‐I converting enzyme” (The Febs Journal, 2013).

Assay [1] addresses T1, AnCE (Drosophila melanogaster, UniProt Q10714).
T1 construct: recombinant single-domain enzyme, secreted from Pichia pastoris, purified
T1 sequence (Q10714 18-615): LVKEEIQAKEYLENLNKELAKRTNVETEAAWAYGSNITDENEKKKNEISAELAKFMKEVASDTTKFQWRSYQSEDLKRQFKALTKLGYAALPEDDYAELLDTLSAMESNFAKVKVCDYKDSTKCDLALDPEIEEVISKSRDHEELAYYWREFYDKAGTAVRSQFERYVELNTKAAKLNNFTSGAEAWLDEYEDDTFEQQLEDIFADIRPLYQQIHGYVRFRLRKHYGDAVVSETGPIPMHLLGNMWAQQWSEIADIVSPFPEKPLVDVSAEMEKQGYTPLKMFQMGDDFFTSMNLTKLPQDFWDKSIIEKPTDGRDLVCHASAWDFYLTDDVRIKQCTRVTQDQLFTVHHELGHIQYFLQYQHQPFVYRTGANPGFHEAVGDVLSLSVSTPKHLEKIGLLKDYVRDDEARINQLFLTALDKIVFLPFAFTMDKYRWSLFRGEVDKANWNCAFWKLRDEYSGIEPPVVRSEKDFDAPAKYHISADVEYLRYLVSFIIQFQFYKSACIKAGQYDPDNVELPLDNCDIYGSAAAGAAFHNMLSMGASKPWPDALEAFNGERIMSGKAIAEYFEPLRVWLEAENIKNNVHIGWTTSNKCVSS
Put plainly: inhibition of hippuryl-histidyl-leucine hydrolysis. Format: biochemical.

The target of the next assay is T2, C-ACE (Homo sapiens, UniProt P12821).
T2 construct: tACEΔ36-g13, truncated underglycosylated variant of testis ACE (C-domain), CHO cells, purified
T2 sequence (P12821 642-1230): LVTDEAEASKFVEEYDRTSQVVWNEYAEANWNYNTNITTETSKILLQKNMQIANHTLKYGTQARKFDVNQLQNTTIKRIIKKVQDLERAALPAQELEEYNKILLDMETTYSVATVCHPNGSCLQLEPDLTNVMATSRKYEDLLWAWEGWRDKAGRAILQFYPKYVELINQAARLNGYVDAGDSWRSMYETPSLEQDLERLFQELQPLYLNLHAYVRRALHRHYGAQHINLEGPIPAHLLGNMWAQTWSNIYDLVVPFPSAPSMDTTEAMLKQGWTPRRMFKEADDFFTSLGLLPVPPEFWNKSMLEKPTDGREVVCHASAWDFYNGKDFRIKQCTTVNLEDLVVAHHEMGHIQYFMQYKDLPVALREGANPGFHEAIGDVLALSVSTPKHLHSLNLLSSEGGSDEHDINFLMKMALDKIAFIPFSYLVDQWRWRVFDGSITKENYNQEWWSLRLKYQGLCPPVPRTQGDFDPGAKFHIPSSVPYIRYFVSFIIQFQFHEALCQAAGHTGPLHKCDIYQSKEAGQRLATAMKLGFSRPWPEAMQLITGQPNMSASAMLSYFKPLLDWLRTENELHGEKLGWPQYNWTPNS
Put plainly: X-ray crystal structure, […] Å. The assay is classed as binding. As to conditions: co-crystal, pH 4.0 reservoir; active site, zinc coordination.

Assay [2] addresses T1, AnCE. In words: inhibition of hippuryl-histidyl-leucine hydrolysis, Ki from IC50 (Cheng-Prusoff). Format: biochemical. As to conditions: read-out: apparent Ki.

Usually pIC50 stands for the negative decadic logarithm of the IC50, by convention in mol/L. A word on the pKi: it is the negative decadic logarithm of the Ki, by convention in mol/L.

pIC50, pKi: −log10 of the molar value.

Compound `O=C(N[C@@H](Cc1ccccc1)P(=O)(O)C[C@@H](Cc1cc(-c2ccccc2)no1)C(=O)N[C@@H](Cc1ccc(O)cc1)C(=O)O)OCc1ccccc1` [FI, (2S)‐2‐({3‐[hydroxyl (2‐phenyl‐(1R)‐1‐{[(benzyloxy)carbonyl]‐amino}ethyl)phosphinyl]‐2‐[(3‐phenylisoxazol‐5‐yl)methyl]‐1‐oxo‐propyl}amino)‐3‐(4‐hydroxy‐phenyl) propanoic acid] gave a negative logarithm of the IC50 (pIC50) at AnCE [1] of 7.36. Further, the “X-ray crystal structure, 1.85 Å” value on C-ACE is reported as “One bound inhibitor molecule was modelled in the catalytic site of C‐ACE”. For the same compound, the pKi on AnCE [2] is 7.62.

On AnCE [1], `O=C(N[C@@H](Cc1ccccc1)P(=O)(O)C[C@H](Cc1cc(-c2ccccc2)no1)C(=O)N[C@@H](Cc1ccc(O)cc1)C(=O)O)OCc1ccccc1` [FII, (2S)‐2‐({3‐[hydroxyl (2‐phenyl‐(1R)‐1‐{[(benzyloxy)carbonyl]‐amino}ethyl)phosphinyl]‐2‐[(3‐phenylisoxazol‐5‐yl)methyl]‐1‐oxo‐propyl}amino)‐3‐(4‐hydroxy‐phenyl) propanoic acid] showed a pIC50 of 6.68. In addition, the pKi on AnCE [2] was 6.92.
